Target: Integrin alpha-V/beta-3 (Homo sapiens, UniProt P05106+P06756)
Test: Inhibition of [125I]echistatin binding to integrin alphaVbeta3 receptor

Chain of Integrin alpha-V/beta-3 (P05106 27-788 limits assumed): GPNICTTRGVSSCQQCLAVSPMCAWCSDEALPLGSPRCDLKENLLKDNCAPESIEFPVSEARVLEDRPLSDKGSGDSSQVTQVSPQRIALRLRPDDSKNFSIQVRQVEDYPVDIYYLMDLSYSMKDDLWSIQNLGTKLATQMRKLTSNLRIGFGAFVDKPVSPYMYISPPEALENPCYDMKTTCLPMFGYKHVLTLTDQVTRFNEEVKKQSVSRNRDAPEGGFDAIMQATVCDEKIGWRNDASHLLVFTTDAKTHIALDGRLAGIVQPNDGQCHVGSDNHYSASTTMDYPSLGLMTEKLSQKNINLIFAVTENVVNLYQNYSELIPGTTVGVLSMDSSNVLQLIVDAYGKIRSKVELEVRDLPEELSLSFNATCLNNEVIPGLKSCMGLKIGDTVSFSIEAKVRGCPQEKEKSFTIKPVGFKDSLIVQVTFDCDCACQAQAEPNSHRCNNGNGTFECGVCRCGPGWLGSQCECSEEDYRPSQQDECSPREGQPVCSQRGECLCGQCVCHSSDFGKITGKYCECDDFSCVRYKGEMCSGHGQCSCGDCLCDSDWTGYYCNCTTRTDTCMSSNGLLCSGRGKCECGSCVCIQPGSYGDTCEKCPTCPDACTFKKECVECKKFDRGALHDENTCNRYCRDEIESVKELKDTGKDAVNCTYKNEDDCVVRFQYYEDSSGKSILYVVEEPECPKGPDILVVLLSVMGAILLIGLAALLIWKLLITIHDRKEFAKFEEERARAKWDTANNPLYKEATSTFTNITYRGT
Chain of Integrin alpha-V/beta-3 (P06756 31-889 limits assumed): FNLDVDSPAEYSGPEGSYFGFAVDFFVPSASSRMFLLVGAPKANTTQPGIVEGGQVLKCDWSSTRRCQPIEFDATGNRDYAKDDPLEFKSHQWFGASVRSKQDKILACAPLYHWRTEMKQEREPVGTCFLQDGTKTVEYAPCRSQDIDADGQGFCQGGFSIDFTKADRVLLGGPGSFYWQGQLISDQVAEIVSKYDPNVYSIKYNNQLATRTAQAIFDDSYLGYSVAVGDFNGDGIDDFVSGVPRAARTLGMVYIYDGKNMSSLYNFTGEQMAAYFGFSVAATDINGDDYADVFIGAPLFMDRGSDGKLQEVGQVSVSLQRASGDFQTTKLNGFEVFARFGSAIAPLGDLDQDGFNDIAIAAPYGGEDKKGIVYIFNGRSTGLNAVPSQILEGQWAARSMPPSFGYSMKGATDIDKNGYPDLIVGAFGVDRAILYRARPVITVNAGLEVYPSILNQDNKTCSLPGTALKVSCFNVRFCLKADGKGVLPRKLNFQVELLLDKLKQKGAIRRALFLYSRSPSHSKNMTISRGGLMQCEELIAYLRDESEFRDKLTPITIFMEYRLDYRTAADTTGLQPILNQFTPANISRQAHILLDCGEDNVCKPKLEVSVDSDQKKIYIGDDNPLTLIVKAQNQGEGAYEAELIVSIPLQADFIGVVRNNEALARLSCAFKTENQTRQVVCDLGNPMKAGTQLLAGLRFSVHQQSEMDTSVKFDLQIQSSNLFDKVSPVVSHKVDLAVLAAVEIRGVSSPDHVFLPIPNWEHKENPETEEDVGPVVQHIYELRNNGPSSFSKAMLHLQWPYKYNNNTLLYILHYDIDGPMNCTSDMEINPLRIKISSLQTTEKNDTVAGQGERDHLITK
Chain of Integrin alpha-V/beta-3 (P06756 891-1048 limits assumed): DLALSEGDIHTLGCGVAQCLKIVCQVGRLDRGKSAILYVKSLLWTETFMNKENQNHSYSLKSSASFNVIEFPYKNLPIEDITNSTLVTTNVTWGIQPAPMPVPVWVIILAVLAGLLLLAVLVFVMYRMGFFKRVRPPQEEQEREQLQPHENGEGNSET

- IC50: > 1000 nM
Structure (SMILES): O=C(O)c1cccc(-c2ccc(CN=Nc3nc4nonc4nc3Nc3ccc(F)cc3)o2)c1 [3-(5-{[6-(4-fluoro-phenylamino)-[1,2,5]oxadiazolo[3,4-b]pyrazin-5-yl]-hydrazonomethyl}-furan-2-yl)-benzoic acid]

Reference: BindingDB's records for doi:10.1021/jm051296s (University of Southern California, 2006)
